These compounds were tested against T1, human factor Xa (Homo sapiens, UniProt P00742) (assay: chromogenic peptide substrate assay, inhibition of factor Xa). Conditions: human factor Xa 3 nM, chromogenic substrate S-2222, pH 7.8, room temperature; apparent Ki from IC50 by Cheng-Prusoff.
T1 construct: purchased Enzyme Research Laboratories
T1 sequence (P00742 235-488 limits assumed): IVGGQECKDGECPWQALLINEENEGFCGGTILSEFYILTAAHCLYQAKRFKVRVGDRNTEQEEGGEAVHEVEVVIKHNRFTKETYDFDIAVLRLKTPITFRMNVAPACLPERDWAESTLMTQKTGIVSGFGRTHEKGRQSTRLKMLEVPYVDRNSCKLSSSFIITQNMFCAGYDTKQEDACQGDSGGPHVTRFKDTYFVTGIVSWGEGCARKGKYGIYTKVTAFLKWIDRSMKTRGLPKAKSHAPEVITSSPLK
T1 sequence (P00742 41-179 partner limits assumed): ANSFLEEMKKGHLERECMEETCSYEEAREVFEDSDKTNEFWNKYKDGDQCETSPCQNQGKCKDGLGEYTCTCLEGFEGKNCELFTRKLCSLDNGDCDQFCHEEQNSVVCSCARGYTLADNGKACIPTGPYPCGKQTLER
Type: biochemical
Protocol: Factor Xa activity was measured spectrophotometrically in microtiter plates in a final volume of 150 μl using the following conditions: Inhibition of human factor Xa (Enzyme Research Laboratories) was tested at an enzyme concentration of 3 nM using the chromogenic substrate S-2222 (Chromogenix AB, Mölndal, Sweden) at […]. The reaction kinetics of the enzyme and the substrate were linear with both time and the enzyme concentration. The inhibitors were dissolved in DMSO and tested at various concentrations up to 100 μM. The inhibitors were diluted using HNPT buffer consisting of HEPES 100 mM, NaCl 140 mM, PEG 6000 0.1% and Tween 80 0.02%, pH 7.8. The cleavage of S-2222 by human factor Xa was followed at 405 nm for 5 minutes at room temperature. The velocity of the reaction was determined by the autoreader from the slope of the linear regression fit to 7 time points (1 minute). The initial velocity for each inhibitor concentration was determined by the slope of at least 4 time points in the linear phase by a linear regression fit […]. Apparent dissociation constants Ki were calculated according to Cheng and Prusoff [Cheng, Y. C.; Prusoff, W. H. Relationship between the inhibition constant (Ki) and the concentration of the inhibitor that causes 50 percent inhibition (IC50) of an enzyme reaction. Biochem. Pharmacol. 1973, 22, 3099-3108.] based on the IC50 and the respective Km, determined previously (Ki=IC50/(1+S/Km)). […] [Lottenberg R, Hall J A, Blinder M, Binder E P, Jackson C M., The action of thrombin on peptide p-nitroanilide substrates. Substrate selectivity and examination of hydrolysis under different reaction conditions. Biochim Biophys Acta. 1983 Feb. 15; 742(3):539-57]. According to Eadie [Eadie G. S. The inhibition of cholinesterase by physostigmine and prostigmine. J. Biol. Chem. 1942, 146, 85-93.], the Km for S-2222 amounted to 613 μM.
With `O=C(NC[C@H]1C[C@H](C(=O)Nc2ccc(-n3ccccc3=O)cc2F)C[C@@H]1O)c1ccc(Cl)s1` (racemic) [Example 15C] the Ki was 0.03 µM. For `O=C(N[C@H]1C[C@@H](C(=O)Nc2ccc(-n3ccccc3=O)cc2F)C[C@@H]1O)c1ccc(Cl)s1` [Example 1C, 5-chloro-thiophene-2-carboxylic acid {(1S,2S,4R)-4-[2-fluoro-4-(2-oxo-2H-pyridin-1-yl)-phenylcarbamoyl]-2-hydroxy-cyclopentyl}-amide], the Ki was 0.015 µM. Work on `O=C(N[C@H]1C[C@@H](C(=O)Nc2ccc(-n3ccncc3=O)cc2F)C[C@@H]1O)c1ccc(Cl)s1` [Example 5, 5-chloro-thiophene-2-carboxylic acid {(1S,2S,4R)-4-[2-fluoro-4-(2-oxo-2H-pyrazin-1-yl)-phenylcarbamoyl]-2-hydroxy-cyclopentyl}-amide] yielded a Ki of 0.018 µM. Compound `CCO[C@H]1C[C@H](C(=O)Nc2ccc(-n3ccccc3=O)cc2F)C[C@@H]1NC(=O)c1ccc(Cl)s1` [Example 13B, 5-chloro-thiophene-2-carboxylic acid {(1S,2S,4R)-2-ethoxy-4-[2-fluoro-4-(2-oxo-2H-pyridin-1-yl)-phenylcarbamoyl]-cyclopentyl}-amide] has a Ki of 0.006 µM.
